In PubChem BioAssay AID687022 (Broad Institute, 2013) one finds AbsAC1 (concentration giving Tm-shift threshold 1.0) data, which are given here for 27 compounds.

The assay addresses Fibroblast growth factor 22 (Homo sapiens) (UniProt Q9HCT0). As to the kind of experiment: binders of human FGF22 protein, dose response, FGF22 synaptogenesis inhibitor project, biophysical, thermal shift, cherry-pick (AID 687022). The conditions noted are these: recombinant FGF22 thermal shift, SYPRO orange melting.

Activity calls are given as the source filed them.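 How the source made its calls: active means Fitted curve of melting temperature shift crosses the 1.0 threshold at or below the sample's highest valid tested concentration; inconclusive means Flat fit with activity 30 to 70, or invalid fit; inactive means Opposite direction, flat within 30, or no crossing.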

Fibroblast growth factor 22 (Homo sapiens), sequence (Q9HCT0 whole entry, looked up): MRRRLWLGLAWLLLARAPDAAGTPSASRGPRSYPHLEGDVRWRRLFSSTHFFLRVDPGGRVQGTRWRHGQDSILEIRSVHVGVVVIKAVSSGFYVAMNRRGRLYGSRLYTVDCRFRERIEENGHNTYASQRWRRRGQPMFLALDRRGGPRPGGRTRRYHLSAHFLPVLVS

`CO[C@@H](CN(C)S(=O)(=O)c1cccc(Cl)c1)[C@@H](C)CN([C@H](C)CO)S(=O)(=O)c1cccc(Cl)c1`: the AbsAC1 (concentration giving Tm-shift threshold 1.0) is 10.3 µM.

`CC1(C(=O)NS(=O)(=O)Cc2cccc(Cl)c2)CCN1C(=O)C1(c2ccc(Cl)cc2)CCC1` (configuration not stated): the AbsAC1 (concentration giving Tm-shift threshold 1.0) is > 10 µM (inactive).

Regarding `COc1ccccc1-c1ccc2c(c1)O[C@@H](CN(C)C(=O)Nc1cccc(F)c1)[C@H](C)CN([C@@H](C)CO)S2(=O)=O`, the AbsAC1 (concentration giving Tm-shift threshold 1.0) is 20.6 µM.

As to `O=C(C[C@H]1CC[C@@H]2[C@H](COC[C@H](O)CN2S(=O)(=O)c2cccc(Cl)c2)O1)Nc1ccccc1`, the AbsAC1 (concentration giving Tm-shift threshold 1.0) was 1.93 µM.

On to `COc1ccccc1NS(=O)(=O)c1cc(C(=O)Nc2ccc(S(=O)(=O)Nc3onc(C)c3C)cc2)ccc1C`, for which the AbsAC1 (concentration giving Tm-shift threshold 1.0) is 4.31 µM.

As for `CSc1nc2nc(Cl)c(Cl)nc2[nH]1`, the AbsAC1 (concentration giving Tm-shift threshold 1.0) is > 38 µM (inactive).

For `COc1cccc(NC(=O)N(C)C[C@H]2Oc3cc(-c4ccccc4F)ccc3S(=O)(=O)N([C@@H](C)CO)C[C@H]2C)c1`, the AbsAC1 (concentration giving Tm-shift threshold 1.0) is 5.23 µM.

With `COc1ccccc1NC(=O)N[C@H]1CC[C@H](CCn2cc(-c3ccccc3OC)nn2)O[C@H]1CO`, the AbsAC1 (concentration giving Tm-shift threshold 1.0) was 4.01 µM.

`O=[N+]([O-])c1cc(CS(=O)(=O)Oc2ccc(Cl)cc2)c(O)c([N+](=O)[O-])c1`: the AbsAC1 (concentration giving Tm-shift threshold 1.0) was > 5 µM (inactive).

With `COc1cccc(NC(=O)N(C)C[C@@H]2Oc3cc(-c4ccccc4F)ccc3S(=O)(=O)N([C@@H](C)CO)C[C@H]2C)c1`, the AbsAC1 (concentration giving Tm-shift threshold 1.0) was 16.3 µM.

As to `C[C@H](CO)N1C[C@H](C)[C@H](CN(C)C(=O)Nc2ccc(C(F)(F)F)cc2)Oc2cc(-c3ccncc3)ccc2S1(=O)=O`, the AbsAC1 (concentration giving Tm-shift threshold 1.0) is 10.3 µM.

As to `O=C(NCC1CCOCC1)c1ccc2nc(Cc3cccc(Cl)c3)oc2c1`, the AbsAC1 (concentration giving Tm-shift threshold 1.0) was 6.43 µM.

On to `COc1cc(NS(=O)(=O)c2ccc(NS(=O)(=O)c3ccc(C)cc3)cc2)nc(OC)n1`, for which the AbsAC1 (concentration giving Tm-shift threshold 1.0) was 3.69 µM.

Take `COc1cccc(NC(=O)N(C)C[C@@H]2Oc3cc(-c4ccccc4F)ccc3S(=O)(=O)N([C@@H](C)CO)C[C@@H]2C)c1`: the AbsAC1 (concentration giving Tm-shift threshold 1.0) is 2.97 µM.

For the compound `O=C(Nc1ccc(S(=O)(=O)N2CCOCC2)cc1)c1ccc(F)cc1`, the AbsAC1 (concentration giving Tm-shift threshold 1.0) is 12.7 µM.

Turning to `CCN(CC)c1ccc2cc(S(=O)(=O)c3ccc(Cl)cc3)c(=O)oc2c1`, the AbsAC1 (concentration giving Tm-shift threshold 1.0) was 5.6 µM.

As for `Nc1nnc(CC(=O)N/N=C/c2cc([N+](=O)[O-])cc(Br)c2O)s1`, the AbsAC1 (concentration giving Tm-shift threshold 1.0) is 4.99 µM.

For the compound `O=C(O)c1ccccc1NS(=O)(=O)c1ccc2ccccc2c1`, the AbsAC1 (concentration giving Tm-shift threshold 1.0) was 4.33 µM.

Regarding `O=C(Nc1cc(Cl)cc(Cl)c1)N[C@H]1CC[C@H](CCNS(=O)(=O)c2cccc(F)c2)O[C@@H]1CO`, the AbsAC1 (concentration giving Tm-shift threshold 1.0) was 11 µM.

As to `O=C(N/N=C/c1ccncc1)c1cccc(N/N=C/c2ccncc2)c1`, the AbsAC1 (concentration giving Tm-shift threshold 1.0) is 8.51 µM.

`O=[N+]([O-])c1ccc(S(=O)(=O)Nc2nnc(C(F)(F)F)s2)cc1`: the AbsAC1 (concentration giving Tm-shift threshold 1.0) was 4.67 µM.

As for `O=C(NNC(=O)c1ccccc1F)c1ccc(NS(=O)(=O)c2ccc(F)cc2)cc1`, the AbsAC1 (concentration giving Tm-shift threshold 1.0) was 18.2 µM.

Consider `C/C=C/c1ccc2c(c1)O[C@@H](CN(C)C(=O)Nc1cc(F)ccc1F)[C@@H](C)CN([C@H](C)CO)S2(=O)=O`, for which the AbsAC1 (concentration giving Tm-shift threshold 1.0) was 20.6 µM.

On to `O=c1c(O)c(-c2cc(O)c(O)c(O)c2)oc2cc(O)cc(O)c12`, for which the AbsAC1 (concentration giving Tm-shift threshold 1.0) was 4.37 µM.

Consider `O=C(CNS(=O)(=O)c1ccccc1)OCC(=O)c1c[nH]c2ccccc12`, for which the AbsAC1 (concentration giving Tm-shift threshold 1.0) was 9.88 µM.

Consider `O=C(N/N=C\c1cccnc1)c1cc(-c2ccc(Cl)s2)[nH]n1`, for which the AbsAC1 (concentration giving Tm-shift threshold 1.0) was > 38 µM (inactive).

Consider `COc1ccc(-c2ccc([C@H]3[C@@H](CO)N4CCCCN(C(=O)c5ccc6c(c5)OCO6)C[C@H]34)cc2)cc1`, for which the AbsAC1 (concentration giving Tm-shift threshold 1.0) is 15.2 µM.
